Measurements: article PMC5584254, “Identification of novel small molecule Beclin 1 mimetics activating autophagy” (Oncotarget, 2017)
Counter-ions that a name gives are not always drawn.

Tests used:
DU145 = assay: MTT-based cytotoxicity assay, DU145; conditions: Homo sapiens, DU-145, averages of at least two independent experiments, read-out: Cytotoxicity in different cell lines (IC50, μM) DU145
From the text: (§1) Human prostate cancer cell lines PC-3 and DU145, were purchased from American Type Culture Collection (ATCC) and used within 50 passages. PC-3a is a derivative of PC-3 that is resistant to chemo/radiotherapy, established in our lab and confirmed by genotyping. All cells were maintained in DMEM (Mediatech, Manassas, VA) supplemented with 10% fetal bovine serum (FBS) (Sigma-Aldrich, St. Louis, MO), 1% Glutamine (Mediatech, Manassas, VA), 1% antibiotics (Mediatech, Manassas, VA). Compounds for primary FP-based HTS screening were from Prestwick, Microsource, University of Kansas Center of Excellence in Chemical Methodologies & Library Development (KU CMLD, Lawrence, KS), and Chembridge libraries. Compounds for MTT and SPR validation experiment were purchased from Microsource (Gaylordsville, CT) and Hit2lead Company (San Diego, CA). Acridine analogues, compound 1–6, were from our in-house library (provided by Specialized Chemistry Center, University of Kansas, Lawrence, KS); compound 7–17 were synthesized as described in supplementary information. (–)-Gossypol was isolated from racemic gossypol as we previously described. ABT-263 and DMSO were purchased from Sigma. MTT-based cytotoxicity assay and western blot analysis was carried out according to our previous publications. The primary antibodies used were LC3B (#2775) (Cell signaling Technology, Danvers, MA) and β-actin (A5441) (Sigma).

PC-3 = assay: MTT-based cytotoxicity assay, PC-3; conditions: Homo sapiens, averages of at least two independent experiments, read-out: Cytotoxicity in different cell lines (IC50, μM) PC-3
From the text: as §1

PC-3a = assay: MTT-based cytotoxicity assay, PC-3a; conditions: Homo sapiens, averages of at least two independent experiments, read-out: Cytotoxicity in different cell lines (IC50, μM) PC-3a
From the text: as §1

Bcl-xL-Beclin 1 complex [1] = molecular target: T1, Bcl-xL-Beclin 1 complex (Homo sapiens, UniProt Q07817); assay: Concentration response FP reconfirmation of HTS hits; assay type: binding; conditions: hits of first screen; for inhibition at 5 µM: read-out: Dose-response (% Inhibition) 5 μM; for inhibition at 10 µM: read-out: Dose-response (% Inhibition) 10 μM; for inhibition at 20 µM: read-out: Dose-response (% Inhibition) 20 μM; for inhibition at 40 µM: read-out: Dose-response (% Inhibition) 40 μM; for inhibition at 80 µM: read-out: Dose-response (% Inhibition) 80 μM; for inhibition at 160 µM: read-out: Dose-response (% Inhibition) 160 μM
T1 construct: made in house
T1 sequence (Q07817 whole entry, one chain of several): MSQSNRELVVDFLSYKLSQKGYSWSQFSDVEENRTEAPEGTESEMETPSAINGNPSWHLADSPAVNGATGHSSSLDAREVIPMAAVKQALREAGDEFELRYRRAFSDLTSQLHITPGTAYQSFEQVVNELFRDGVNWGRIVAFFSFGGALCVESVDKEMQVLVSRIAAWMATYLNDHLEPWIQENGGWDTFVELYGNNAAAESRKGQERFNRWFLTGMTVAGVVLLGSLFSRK
Experimental: (§2) Then the plates were read by Envision (Perkin Elmer, Waltham, MA). […] The hits were selected from library stocks and reconfirmed in a concentration response FP assay (6 doses ranging from 5 μM to 160 μM or 8 doses ranging from 0.5 μM to 60 μM).

Bcl-xL-Beclin 1 complex [2] = molecular target: T1, Bcl-xL-Beclin 1 complex; assay: FP-based high-throughput screening, primary screen; assay type: binding; conditions: first screen; 40 μM compound, 2.5 μM Bcl-xL, 400 nM 20-mer
From the text: Next, we optimized the FP competitive binding assay in a 384-well microplate format and carried out a small-scale HTS using a small library, which contains 6580 compounds from Prestwick, Microsource and our in-house CMLD library. Then, the FP assay was optimized and applied in screening the larger Chembridge library consisting of 43736 compounds. HTS cascades are shown in Supplementary Figure 1A–1B. […] All chemical structures can be found on the PubChem website (http://pubchem.ncbi.nlm.nih.gov/).
as §2

Structure (SMILES) | IC50 (DU145) | IC50 (PC-3) | IC50 (PC-3a) | inhibition at 5 µM (Bcl-xL-Beclin 1 complex [1]) | inhibition at 10 µM (Bcl-xL-Beclin 1 complex [1]) | inhibition at 20 µM (Bcl-xL-Beclin 1 complex [1]) | inhibition at 40 µM (Bcl-xL-Beclin 1 complex [1]) | inhibition at 80 µM (Bcl-xL-Beclin 1 complex [1]) | inhibition at 160 µM (Bcl-xL-Beclin 1 complex [1]) | Primary Screen mP (Bcl-xL-Beclin 1 complex [2]) | inhibition at 40 µM (Bcl-xL-Beclin 1 complex [2])
CN(CCc1ccc(O)c(O)c1)c1c2ccccc2nc2ccccc12 [Compound 2] | 47 ± 7.39 µM | 38.7 ± 5.46 µM | 29.2 ± 11.2 µM | – | – | – | – | – | – | – | –
COc1cc(Br)c(CCNc2c3ccccc3nc3ccccc23)cc1OC [Compound 4] | 6.33 ± 0.32 µM | 4.43 ± 0.46 µM | 4.37 ± 0.68 µM | – | – | – | – | – | – | – | –
COc1ccc2nc3cc(Cl)ccc3c(NCCOCCO)c2c1 [Compound 8] | 3.68 ± 0.55 µM | 1.42 ± 0.73 µM | 1.64 ± 0.78 µM | – | – | – | – | – | – | – | –
COc1ccc2nc3cc(Cl)ccc3c(Oc3ccccc3)c2c1 [Compound 10] | 77.7 ± 24.2 µM | 14.1 ± 0.71 µM | 36.1 ± 8.23 µM | – | – | – | – | – | – | – | –
COc1ccc2nc3ccccc3c(-c3ccncc3)c2c1 [Compound 12] | 45.4 ± 8.18 µM | 21.6 ± 2.24 µM | 16.4 ± 2.56 µM | – | – | – | – | – | – | – | –
COc1ccc2nc3cc(Cl)ccc3c(-c3ccncc3)c2c1 [Compound 13] | 57 ± 14.5 µM | 52.4 ± 10.4 µM | 53.9 ± 3.66 µM | – | – | – | – | – | – | – | –
COc1ccc2nc3cc(Cl)ccc3c(-c3ccc(NC(=O)OC(C)(C)C)cc3)c2c1 [Compound 16] | 36 ± 14 µM | 45 ± 20.2 µM | 38.7 ± 20.4 µM | – | – | – | – | – | – | – | –
COc1ccc2nc3cc(Cl)ccc3c(-c3ccc(N)cc3)c2c1 [Compound 17] | 53 ± 14.7 µM | 29.5 ± 28.4 µM | > 100 µM | – | – | – | – | – | – | – | –
COc1cccc2c1C(=O)c1c(O)c3c(c(O)c1C2=O)C[C@@](O)(C(=O)CO)C[C@@H]3O[C@H]1C[C@H](N)[C@@H](O)[C@H](C)O1 [Compound A24, EPIRUBICIN HYDROCHLORIDE] | – | – | – | 6.8% | 11.3% | 16.2% | 23.1% | 34.4% | 40.9% | 136.0 mP | 22.8%
COc1cccc2c1C(=O)c1c(O)c3c(c(O)c1C2=O)C[C@@](O)(C(=O)CO)C[C@@H]3O[C@H]1C[C@H](N)[C@H](O)[C@H](C)O1 [Compound A25, DOXORUBICIN HYDROCHLORIDE] | – | – | – | 18.9% | 29.1% | 36.5% | 41.7% | 48.6% | 53.2% | 75.9 mP | 44%
